Results as given in ChEMBL document CHEMBL5674860, “Optimized Dual-Glo Assay to identify co-culture-induced drug vulnerabilities in 3D CRC models” (2024).

Experiments:
Assay type in all cases: functional, Homo sapiens
Design in all cases: dose or concentration left out as unconfirmed
Colon cancer organoid [1] = assay: Optimized Dual-Glo assay to identify co-culture induced drug vulnerabilities using donated chemical probes and chemogenomics kinase set in O06 CRC organoid and F06 CAF mono and co-culture. […] Cell viability is reported both mono and co-culture models.
Colon cancer organoid [2] = assay: Optimized Dual-Glo assay to identify co-culture induced drug vulnerabilities using donated chemical probes and chemogenomics kinase set in O20 CRC organoid and F20 CAF mono and co-culture. […] Cell viability is reported both mono and co-culture models.
Colon cancer organoid [3] = assay: Optimized Dual-Glo assay to identify co-culture induced drug vulnerabilities using donated chemical probes and chemogenomics kinase set in O14 CRC organoid and F14 CAF mono and co-culture. […] Cell viability is reported both mono and co-culture models.
[4] = Culture type Co-Culture, Transduced with Lucferase2-P2A-EGFP lentivirus
[5] = Culture type Co-Culture, Transduced with Renilla-dsRed lentivirus
[6] = Culture type Mono-Culture, Transduced with Lucferase2-P2A-EGFP lentivirus
[7] = Culture type Mono-Culture, Transduced with Renilla-dsRed lentivirus

SMILES	Cell Viability (Colon cancer organoid [1]; [4]) [%]	Cell Viability (Colon cancer organoid [1]; [5]) [%]	Cell Viability (Colon cancer organoid [1]; [6]) [%]	Cell Viability (Colon cancer organoid [1]; [7]) [%]	Cell Viability (Colon cancer organoid [2]; [4]) [%]	Cell Viability (Colon cancer organoid [2]; [5]) [%]	Cell Viability (Colon cancer organoid [2]; [6]) [%]	Cell Viability (Colon cancer organoid [2]; [7]) [%]	Cell Viability (Colon cancer organoid [3]; [4]) [%]	Cell Viability (Colon cancer organoid [3]; [5]) [%]	Cell Viability (Colon cancer organoid [3]; [6]) [%]	Cell Viability (Colon cancer organoid [3]; [7]) [%]
Cc1c(NC(=O)c2ccc(C(C)(C)C)cc2)cccc1-c1cn(C)c(=O)c(Nc2ccc(C(=O)N3CCOCC3)cc2)n1	105.279	113.435	83.7541	97.4758	109.579	88.3582	122.68	92.088	85.4676	81.7664	100.184	91.8671
CCCCNc1ncc(-c2ccc(CN3CCOCC3)cn2)c(N[C@H]2CC[C@H](O)CC2)n1	22.8495	123.664	12.6023	77.4775	8.774	223.767	10.8517	82.0591	23.305	148.151	59.2421	71.142
CC(C)NC(=O)N1CC[C@H](NC2=Nc3cc(F)ccc3N(CC(F)F)c3ccc(Cl)cc32)C1	86.0472	89.4587	81.5326	94.1375	55.1322	142.836	58.5304	89.934	105.089	97.5374	82.3325	100.505
CN1CCN(Cc2cc(NC(=O)c3ccc4c(c3)CN(c3ccccc3)CC4)cc(C(F)(F)F)c2)CC1	103.855	89.7391	108.49	105.467	90.0307	84.0381	92.4079	96.3902	99.7753	107.038	129.235	97.9505
Cc1cn(-c2cc(NC(=O)c3ccc4c(c3)CN(c3cncnc3)C[C@@H]4C)cc(C(F)(F)F)c2)cn1	85.5561	98.7805	59.4105	105.628	88.3808	107.854	86.0975	111.829	105.46	96.2213	134.218	97.9875
Cc1cccc(-c2cnc3occ(-c4ccc(C(=O)O)c(C5CCCC5)c4)c3c2)c1	95.2844	61.5637	124.633	116.796	88.6258	133.429	94.6873	103.401	114.736	94.3308	126.625	90.9911
O=C(NCCCN1CCOC1=O)c1cnc(NCc2cc(Br)ccc2Br)nc1NC1CCCC1	110.394	154.807	109.931	185.402	103.947	94.0994	97.7699	110.221	74.8932	125.798	157.235	136.857
O=C(O)c1ccc(-c2coc3ncc(-c4ccccc4)cc23)cc1Cl	226.279	119.386	202.946	112.766	189.357	126.188	202.493	116.18	199.753	90.4064	200.801	87.3818
CN(C(=O)c1cnn2cccnc12)c1cc2c(cc1N1CCOCC1)C(=O)N(C[C@@H](F)C(C)(C)O)C2	93.6773	65.3185	72.0703	97.8487	85.0124	89.8275	94.3235	98.269	89.5893	113.489	112.103	103.195
c1ccc(C2CCN(c3cnc4c(N5CCOCC5)nccn34)CC2)cc1	98.2025	98.7191	229.272	111.241	90.2822	108.246	142.742	115.191	111.149	110.22	155.031	89.751
CCOc1ccc(S(=O)(=O)Nc2ccc(Cl)cc2C#Cc2cnc(C(=O)[O-])cc2OC)c2ncccc12.[K+]	117.764	113.31	103.254	83.0425	109.87	117.362	101.299	92.0089	128.517	94.7736	96.9622	95.2003
CC1=CC(C)=[N+]2C1=C(CCCCc1cn(CC(=O)N3CCc4nc(NC(=O)[C@H]5CCN(C#N)C5)sc4C3)nn1)c1c(C)cc(C)n1[B-]2(F)F	125.029	111.523	94.7301	81.9832	77.2227	101.216	73.7517	82.644	88.5952	139.238	60.7776	90.2828
COc1ccccc1C(=O)Nc1cc2c(cc1N1CCNCC1C)n(C)c(=O)n2C (stereo not drawn)	112.155	138.916	92.5462	113.336	130.677	107.173	124.631	104.05	109.979	135.305	100.033	95.8386
COc1cccc2c1C(=O)c1c(O)c3c(c(O)c1C2=O)CC(O)(C(=O)CO)CC3OC1CC(N)C(O)C(C)O1.Cl (stereo not drawn)	14.9439	235.56	8.313	104.821	5.379	237.178	7.074	81.7547	1.614	163.438	2.622	97.5605
